Assay results as given in patent publication US20230151334A1, “CULTURE PLATFORMS, METHODS, AND USES THEREOF” (HELSINGIN YLIOPISTO, priority 2020, published 2023).
Entries after “also recorded” stand apart in the source; their conditions may differ.

What was measured:
TNBC cell line, DU4475 = test: Western blot of ERα in TNBC cell line after anisomycin treatment; assay type: cell-based
Source text: (§1) We observed stress-responsive mitogen-activated protein kinase (MAPKs) pathway activated in the in LMx-Ag, compared to LMx-Al. The nuclear expression of phosphorylated p38 was also visible in the MMECs cultured in LMx-Ag. To confirm the role of stress-responsive mitogen-activated protein kinases in the ERα activation, we used anisomycin to directly activate the pathway in TNBC cell line, DU4475. […] We used inhibitor of the methyltransferase EZH2, which mediates the silencing of ERα and observed the retained expression of ERα (FIG. 4D).

MMECs = test: Immunofluorescent staining of nuclear ERα in MMECs after compound exposure; assay type: cell-based, mouse; details: MMECs after exposure to compound
Method: Mouse primary mammary epithelial fragments were isolated with 0.2% collagenase for 1 h at +37° C. Media used for the mouse tissue was DMEM/F12 (Thermo Fisher Scientific) supplemented with 5% horse serum, 5 ug/mL Insulin, 1 µg/mL hydrocortisone, 10 ng/mL EGF, and 100 U PenStrep.
For immunofluorescent analysis 3D cultured breast cancer fragments were fixed with 4% paraformaldehyde for 20 min at room temperature and washed three times with PBS. The tissue fragments were permeabilized with 0.25% Triton X-100 in PBS for 10 min at RT and blocked in IF buffer (7.7 mM NaN3, 0.1% BSA, 0.2% Triton X-100, and 0.05% Tween 20 in PBS) supplemented with 10% (vol/vol) normal goat serum for1-1.5 h. The fragments were then incubated with the primary antibody diluted in blocking solution overnight at +4° C. Following incubation, fragments were washed three times with IF buffer (20 min each wash) and then incubated with the appropriate Alexa Fluor secondary antibody diluted in IF buffer with 10% goat serum. After 60 min of incubation at RT, the fragments were washed with IF buffer as before and the nuclei were counterstained with Hoechst 33258 (Sigma). Slides containing tissue fragments were mounted with ImmuMount reagent. Images of the structures were acquired using a Leica TCS SP8 CARS confocal microscope using a HC PL APO CS2 40x objective. […]

PDEC-N and PDEC-BC = test: Immunofluorescent staining of nuclear ERα and phosphorylated p38 in PDEC-N and PDEC-BC after compound exposure; assay type: cell-based, human
Method: Fresh tissue was obtained from elective breast cancer surgeries. Tissue was collected from both the tumor tissue and the area surrounding the tumor (non-tumor samples). Also tissue from reduction mammoplasties (RMP) were collected. From every tumor, one portion was taken for immunohistochemical analysis (IHC), for DNA/RNA/protein isolation, and the rest was used for isolation of fragments and 3D culture. For isolation of human breast cancer fragments, breast cancer tissue was incubated with 0.2% collagenase in MammoCult media produced by StemCell technologies (supplemented with 4 ug/mL heparin, MammoCult proliferation supplements, 0.1 µg/mL 10.000 UI/mL PenStrep, Amphotericin, and 25 µg/mL Gentamycin) with gentle shaking at 37° C. overnight. The resulting cell suspension was then centrifuged at 1,300 rpm for 3 min, washed once with MammoCult and plated in 8-chamber plates. Matrices used for the cultures were: Agarose (UltraPure™ Low Melting Point Agarose, Invitrogen™), Collagen (Collagen I Rat tail, Corning), Matrigel (Matrigel Basement Matrix Growth Factor Reduced, 8.8 mg/mL, Corning), Egg white, Ovomucine, GrowDex (15 mg/mL, UPM-Kymmene OYj), Alginate (Alginic acid sodium salt, Aldrich) and Alginate-RGD (Sodium Alginate MVG GRGDSP, NovaMatrix, NOVATACH). Ovomucin was isolated from chicken egg whites according to an established protocol (Omana and Wu, 2009, J Agric Food Chem 57, 3596-3603). Briefly, ovomucin was isolated from egg white using isoelectric precipitation in the presence of 100 mM NaCl solution at pH adjusted to 6.0. The resulting mixture was stored overnight at 4° C. in a refridgerator followed by centrifugation. The precipitate was re-suspended in 500 mM NaCl solution at pH 6.0 again and stored overnight at 4° C. The dispersion was centrifuged, and the precipitate was purified by dialyzing against water overnight. Dialysed sample was freeze-dried under the vacuum. For gelation, the solid ovomucin powder was dissolved in MilliQ (18 W) water using Ultra-Turrax (IKA) mixer.
For immunofluorescent analysis 3D cultured breast cancer fragments were fixed with 4% paraformaldehyde for 20 min at room temperature and washed three times with PBS. The tissue fragments were permeabilized with 0.25% Triton X-100 in PBS for 10 min at RT and blocked in IF buffer (7.7 mM NaN3, 0.1% BSA, 0.2% Triton X-100, and 0.05% Tween 20 in PBS) supplemented with 10% (vol/vol) normal goat serum for1-1.5 h. The fragments were then incubated with the primary antibody diluted in blocking solution overnight at +4° C. Following incubation, fragments were washed three times with IF buffer (20 min each wash) and then incubated with the appropriate Alexa Fluor secondary antibody diluted in IF buffer with 10% goat serum. After 60 min of incubation at RT, the fragments were washed with IF buffer as before and the nuclei were counterstained with Hoechst 33258 (Sigma). Slides containing tissue fragments were mounted with ImmuMount reagent. Images of the structures were acquired using a Leica TCS SP8 CARS confocal microscope using a HC PL APO CS2 40x objective.
as §1

TNBC cell line DU4475 = test: Immunofluorescent staining of nuclear ERα in TNBC cell line DU4475 after EZH2 inhibitor; assay type: cell-based; details: TNBC cell line DU4475 after exposure to compound
[1] = test system: ERα downstream targets PGR and GREB1 in PDEC-BC; test: QRT-PCR of ERα target genes in PDEC-BC cultures after tamoxifen/antiestrogen treatment; assay type: cell-based, human
Method: Instead of anisomycin, the stress activated protein kinase pathway is also activated by multiple other factors e.g oxidative stress. We observed, if the PDEC cultures were performed under a higher oxygen concentration, such as in air-liquid interface, the functional ERα was preserved together with the activation of p38 (FIG. 5A). We treated these PDEC-BC with antiestrogens and observed a suppression in ERα downstream targets PGR and GREB1 (FIG. 5B).
We exposed the human PDEC-N and PDEC-BC cultures to the additional compressive forces with the magnet mediated mechanical compression (FIG. 5C). […] We treated the compressed PDEC-BC with tamoxifen and observed a suppression in ERα downstream targets PGR and GREB1 (FIG. 5E).

[2] = PDEC-BC (PDEC-T) after exposure to compound
[3] = PDEC-N after exposure to compound
[4] = PDEC-BC exposed to magnet-mediated compression

SMILES	ERα expression (Western blot) (TNBC cell line, DU4475)	nuclear ERα (immunofluorescent staining) (MMECs)	nuclear ERα (immunofluorescent staining) (PDEC-N and PDEC-BC; [2])	phosphorylated p38 (immunofluorescent staining) (PDEC-N and PDEC-BC; PDEC-BC after exposure to compound)	nuclear ERα (immunofluorescent staining) (PDEC-N and PDEC-BC; [3])	phosphorylated p38 (immunofluorescent staining) (PDEC-N and PDEC-BC; [3])	nuclear ERα (immunofluorescent staining) (TNBC cell line DU4475)	GREB1 expression [1, 4]	PGR expression (QRT-PCR) [1, 4]	PGR expression (QRT-PCR) ([1]; PDEC-BC exposed to magnet-mediated compression, listed as Tamoxifen)	PGR expression (QRT-PCR) ([1]; air-liquid interface (ALI) cultured PDEC-BC, o/n treatment)
COc1ccc(C[C@H]2NC[C@H](O)[C@H]2OC(C)=O)cc1 [anisomycin]	able to activate the ERα expression; also recorded: upregulation of ERα	activation of nuclear ERα	activation of nuclear ERα	activation of phosphorylated-38	activation of nuclear ERα	activation of phosphorylated-38	–	–	–	–	–
CC[C@H](C)n1cc(C)c2c(C(=O)NCc3c(C)cc(C)[nH]c3=O)cc(-c3ccc(N4CCNCC4)nc3)cc21 [GSK-126]	–	activation of nuclear ERα	activation of nuclear ERα	–	activation of nuclear ERα	–	activation of nuclear ERα	–	–	–	–
CC/C(=C(\c1ccccc1)c1ccc(OCCN(C)C)cc1)c1ccccc1 [tamoxifen]	–	–	–	–	–	–	–	suppression	suppression	suppresses	downregulation
